# Measurements as given in patent US8748461B2, “Metalloenzyme inhibitor compounds” (Viamet Pharmaceuticals, Inc., priority 2011, dated 2014).
# How the values were obtained:
# [1] = tested on: Septoria tritici (ATCC 26517); assay: Minimum Inhibitory Concentration (MIC) vs. Septoria tritici; type: cell-based; details: Zymoseptoria tritici, ATCC26517, 168 h; 50% reduction in growth of S. tritici; 22° C., seven days; read-out: Septoria Rating (MIC)
# Outline: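 Growth inhibition of S. tritici by CLSI-based filamentous-fungus microdilution, 2-fold series 16 to 0.016 μg/mL in RPMI-1640/MOPS with 2% DMSO. Inoculum approximately 5×10^4 cfu/mL; plates incubated 22° C, seven days, dark, unshaken.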
# [2] = tested on: Puccinia recondita tritici = Puccinia triticina; assay: Fungicidal activity vs. leaf rust on wheat plants; type: in vivo; details: 50 ppm spray on wheat (Yuma), inoculated the following day, evaluated 7-9 days later; read-out: Puccinia Rating (% Disease Control @ 50 ppm)
# Outline: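 Wheat seedlings were sprayed to wetness with compound at 50 ppm in 10% acetone/Triton X100 water, at about 1500 L/ha. They were inoculated with P. recondita tritici spores the following day and held overnight at high humidity before greenhouse growth. Disease severity was rated 7-9 days later on a rating scale.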
structure (smiles),measurement,setting,value
"COc1ccc(Oc2ccc(C(F)(F)C(O)(Cn3cnnn3)c3ccc(F)cc3F)nc2)cc1 (stereo not drawn) [Compound 87, 2-(2,4-Difluorophenyl)-1,1-difluoro-1-(5-(4-methoxyphenoxy)pyridin-2-yl)-3-(1H-tetrazol-1-yl)propan-2-ol]",MIC,[1],> 4 µg/mL
same,pest or weed control at 50 ppm,[2],80 to 100%
"OC(Cn1cnnn1)(c1ccc(F)cc1F)C(F)(F)c1ccc(Oc2ccccc2F)cn1 (stereo not drawn) [Compound 88, 2-(2,4-Difluorophenyl)-1,1-difluoro-1-(5-(2-fluorophenoxy)pyridin-2-yl)-3-(1H-tetrazol-1-yl)propan-2-ol]",MIC,[1],≤ 0.5 µg/mL
same,pest or weed control at 50 ppm,[2],80 to 100%
"N#Cc1ccc(Oc2ccc(C(F)(F)C(O)(Cn3cnnn3)c3ccc(F)cc3F)nc2)c(F)c1 (stereo not drawn) [Compound 89, 4-((6-(2-(2,4-Difluorophenyl)-1,1-difluoro-2-hydroxy-3-(1H-tetrazol-1-yl)propyl)pyridin-3-yl)oxy)-3-fluorobenzonitrile]",MIC,[1],≤ 0.5 µg/mL
same,pest or weed control at 50 ppm,[2],80 to 100%
"OC(Cn1cnnn1)(c1ccc(F)cc1F)C(F)(F)c1ccc(Oc2ncc(C(F)(F)F)cc2Cl)cn1 (stereo not drawn) [Compound 92, 1-(5-((3-chloro-5-(trifluoromethyl)pyridin-2-yl)oxy)pyridin-2-yl)-2-(2,4-difluorophenyl)-1,1-difluoro-3-(1H-tetrazol-1-yl)propan-2-ol]",MIC,[1],≤ 0.5 µg/mL
same,pest or weed control at 50 ppm,[2],80 to 100%
"N#Cc1ccc(Oc2ccc(C(F)(F)C(O)(Cn3cnnn3)c3ccc(F)cc3F)nc2)nc1 (stereo not drawn) [Compound 93, 6-((6-(2-(2,4-difluorophenyl)-1,1-difluoro-2-hydroxy-3-(1H-tetrazol-1-yl)propyl)pyridin-3-yl)oxy)nicotinonitrile]",MIC,[1],≤ 0.5 µg/mL
same,pest or weed control at 50 ppm,[2],80 to 100%
"OC(Cn1cnnn1)(c1ccc(F)cc1F)C(F)(F)c1ccc(Oc2ccc(C(F)(F)F)cn2)cn1 (stereo not drawn) [Compound 94, 2-(2,4-difluorophenyl)-1,1-difluoro-3-(1H-tetrazol-1-yl)-1-(5-((5-(trifluoromethyl)pyridin-2-yl)oxy)pyridin-2-yl)propan-2-ol]",MIC,[1],≤ 0.5 µg/mL
same,pest or weed control at 50 ppm,[2],80 to 100%
"OC(Cn1cnnn1)(c1ccc(F)cc1F)C(F)(F)c1ccc(Oc2ccc(Cl)cn2)cn1 (stereo not drawn) [Compound 95, 1-(5-((5-chloropyridin-2-yl)oxy)pyridin-2-yl)-2-(2,4-difluorophenyl)-1,1-difluoro-3-(1H-tetrazol-1-yl)propan-2-ol]",MIC,[1],≤ 0.5 µg/mL
same,pest or weed control at 50 ppm,[2],80 to 100%
"N#Cc1cc(Oc2ccc(C(F)(F)C(O)(Cn3cnnn3)c3ccc(F)cc3F)nc2)ccn1 (stereo not drawn) [Compound 96, 4-((6-(2-(2,4-difluorophenyl)-1,1-difluoro-2-hydroxy-3-(1H-tetrazol-1-yl)propyl)pyridin-3-yl)oxy)picolinonitrile]",MIC,[1],1.5 to 4 µg/mL
same,pest or weed control at 50 ppm,[2],60 to 79%
"OC(Cn1cnnn1)(c1ccc(F)cc1F)C(F)(F)c1ccc(Oc2ncccn2)cn1 (stereo not drawn) [Compound 97, 2-(2,4-difluorophenyl)-1,1-difluoro-1-(5-(pyrimidin-2-yloxy)pyridin-2-yl)-3-(1H-tetrazol-1-yl)propan-2-ol]",MIC,[1],0.5 to 1.5 µg/mL
same,pest or weed control at 50 ppm,[2],80 to 100%
"OC(Cn1cnnn1)(c1ccc(F)cc1F)C(F)(F)c1ccc(Oc2ncc(Cl)cn2)cn1 (stereo not drawn) [Compound 98, 1-(5-((5-chloropyrimidin-2-yl)oxy)pyridin-2-yl)-2-(2,4-difluorophenyl)-1,1-difluoro-3-(1H-tetrazol-1-yl)propan-2-ol]",MIC,[1],≤ 0.5 µg/mL
same,pest or weed control at 50 ppm,[2],80 to 100%
"OC(Cn1cnnn1)(c1ccc(F)cc1F)C(F)(F)c1ccc(Oc2ncc(Br)cn2)cn1 (stereo not drawn) [Compound 99, 1-(5-((5-bromopyrimidin-2-yl)oxy)pyridin-2-yl)-2-(2,4-difluorophenyl)-1,1-difluoro-3-(1H-tetrazol-1-yl)propan-2-ol]",MIC,[1],≤ 0.5 µg/mL
same,pest or weed control at 50 ppm,[2],80 to 100%
"N#Cc1ncc(Oc2ccc(C(F)(F)C(O)(Cn3cnnn3)c3ccc(F)cc3F)nc2)cn1 (stereo not drawn) [Compound 100, 5-((6-(2-(2,4-difluorophenyl)-1,1-difluoro-2-hydroxy-3-(1H-tetrazol-1-yl)propyl)pyridin-3-yl)oxy)pyrimidine-2-carbonitrile]",MIC,[1],0.5 to 1.5 µg/mL
same,pest or weed control at 50 ppm,[2],60 to 79%
"O=Cc1ccc(Oc2ccc(C(F)(F)C(O)(Cn3cnnn3)c3ccc(F)cc3F)nc2)nc1 (stereo not drawn) [Compound 101, 6-((6-(2-(2,4-difluorophenyl)-1,1-difluoro-2-hydroxy-3-(1H-tetrazol-1-yl)propyl)pyridin-3-yl)oxy)nicotinaldehyde]",MIC,[1],> 4 µg/mL
same,pest or weed control at 50 ppm,[2],< 40%
"CO/N=C/c1ccc(Oc2ccc(C(F)(F)C(O)(Cn3cnnn3)c3ccc(F)cc3F)nc2)nc1 (stereo not drawn) [Compound 102, (E)-6-((6-(2-(2,4-difluorophenyl)-1,1-difluoro-2-hydroxy-3-(1H-tetrazol-1-yl)propyl)pyridin-3-yl)oxy)nicotinaldehyde O-methyl oxime]",MIC,[1],≤ 0.5 µg/mL
same,pest or weed control at 50 ppm,[2],80 to 100%
"OC(Cn1cnnn1)(c1ccc(F)cc1F)C(F)(F)c1ccc(Oc2ccc(/C=N/OCc3ccccc3)cn2)cn1 (stereo not drawn) [Compound 103, (E)-6-((6-(2-(2,4-difluorophenyl)-1,1-difluoro-2-hydroxy-3-(1H-tetrazol-1-yl)propyl)pyridin-3-yl)oxy)nicotinaldehyde O-benzyl oxime]",MIC,[1],0.5 to 1.5 µg/mL
same,pest or weed control at 50 ppm,[2],60 to 79%
"OC(Cn1cnnn1)(c1ccc(F)cc1F)C(F)(F)c1ccc(Oc2ncc(C(F)(F)F)cc2F)cn1 (stereo not drawn) [Compound 104, 2-(2,4-difluorophenyl)-1,1-difluoro-1-(5-((3-fluoro-5-(trifluoromethyl)pyridin-2-yl)oxy)pyridin-2-yl)-3-(1H-tetrazol-1-yl)propan-2-ol]",MIC,[1],≤ 0.5 µg/mL
same,pest or weed control at 50 ppm,[2],80 to 100%
"OC(Cn1cnnn1)(c1ccc(F)cc1F)C(F)(F)c1ccc(Oc2ncc(C(F)(F)F)cn2)cn1 (stereo not drawn) [Compound 105, 2-(2,4-difluorophenyl)-1,1-difluoro-3-(1H-tetrazol-1-yl)-1-(5-((5-(trifluoromethyl)pyrimidin-2-yl)oxy)pyridin-2-yl)propan-2-ol]",MIC,[1],≤ 0.5 µg/mL
same,pest or weed control at 50 ppm,[2],80 to 100%
"OC(Cn1cnnn1)(c1ccc(F)cc1F)C(F)(F)c1ccc(Oc2ccc(Br)cn2)cn1 (stereo not drawn) [Compound 106, 1-(5-((5-bromopyridin-2-yl)oxy)pyridin-2-yl)-2-(2,4-difluorophenyl)-1,1-difluoro-3-(1H-tetrazol-1-yl)propan-2-ol]",MIC,[1],≤ 0.5 µg/mL
same,pest or weed control at 50 ppm,[2],80 to 100%
"N#Cc1cnc(Oc2ccc(C(F)(F)C(O)(Cn3cnnn3)c3ccc(F)cc3F)nc2)s1 (stereo not drawn) [Compound 107, 2-((6-(2-(2,4-difluorophenyl)-1,1-difluoro-2-hydroxy-3-(1H-tetrazol-1-yl)propyl)pyridin-3-yl)oxy)thiazole-5-carbonitrile]",MIC,[1],≤ 0.5 µg/mL
same,pest or weed control at 50 ppm,[2],< 40%
"OC(Cn1cnnn1)(c1ccc(F)cc1F)C(F)(F)c1ccc(OCc2ccc(Cl)cn2)cn1 (stereo not drawn) [Compound 113, 1-(5-((5-chloropyridin-2-yl)methoxy)pyridin-2-yl)-2-(2,4-difluorophenyl)-1,1-difluoro-3-(1H-tetrazol-1-yl)propan-2-ol]",MIC,[1],≤ 0.5 µg/mL
same,pest or weed control at 50 ppm,[2],80 to 100%
"OC(Cn1cnnn1)(c1ccc(F)cc1F)C(F)(F)c1ccc(OCc2ccc(C(F)(F)F)cn2)cn1 (stereo not drawn) [Compound 114, 2-(2,4-difluorophenyl)-1,1-difluoro-3-(1H-tetrazol-1-yl)-1-(5-((5-(trifluoromethyl)pyridin-2-yl)methoxy)pyridin-2-yl)propan-2-ol]",MIC,[1],≤ 0.5 µg/mL
same,pest or weed control at 50 ppm,[2],80 to 100%
"OC(Cn1cnnn1)(c1ccc(F)cc1F)C(F)(F)c1ccc(OCc2ccc(C(F)(F)F)nc2)cn1 (stereo not drawn) [Compound 115, 2-(2,4-difluorophenyl)-1,1-difluoro-3-(1H-tetrazol-1-yl)-1-(5-((6-(trifluoromethyl)pyridin-3-yl)methoxy)pyridin-2-yl)propan-2-ol]",MIC,[1],≤ 0.5 µg/mL
same,pest or weed control at 50 ppm,[2],80 to 100%
"OC(Cn1cnnn1)(c1ccc(F)cc1F)C(F)(F)c1ccc(OCc2ccc(Cl)nc2)cn1 (stereo not drawn) [Compound 116, 1-(5-((6-chloropyridin-3-yl)methoxy)pyridin-2-yl)-2-(2,4-difluorophenyl)-1,1-difluoro-3-(1H-tetrazol-1-yl)propan-2-ol]",MIC,[1],≤ 0.5 µg/mL
same,pest or weed control at 50 ppm,[2],80 to 100%
"OC(Cn1cnnn1)(c1ccc(F)cc1F)C(F)(F)c1ccc(OCc2ccnc(Cl)c2)cn1 (stereo not drawn) [Compound 117, 1-(5-((2-chloropyridin-4-yl)methoxy)pyridin-2-yl)-2-(2,4-difluorophenyl)-1,1-difluoro-3-(1H-tetrazol-1-yl)propan-2-ol]",MIC,[1],≤ 0.5 µg/mL
same,pest or weed control at 50 ppm,[2],80 to 100%
"OC(Cn1cnnn1)(c1ccc(F)cc1F)C(F)(F)c1ccc(OCc2ccncc2)cn1 (stereo not drawn) [Compound 118, 2-(2,4-difluorophenyl)-1,1-difluoro-1-(5-(pyridin-4-ylmethoxy)pyridin-2-yl)-3-(1H-tetrazol-1-yl)propan-2-ol]",MIC,[1],≤ 0.5 µg/mL
same,pest or weed control at 50 ppm,[2],< 40%
"OC(Cn1cnnn1)(c1ccc(F)cc1F)C(F)(F)c1ccc(OCC(F)(F)c2ccccc2)cn1 (stereo not drawn) [Compound 119, 1-(5-(2,2-difluoro-2-phenylethoxy)pyridin-2-yl)-2-(2,4-difluorophenyl)-1,1-difluoro-3-(1H-tetrazol-1-yl)propan-2-ol]",MIC,[1],≤ 0.5 µg/mL
same,pest or weed control at 50 ppm,[2],80 to 100%
"OC(Cn1cnnn1)(c1ccc(F)cc1F)C(F)(F)c1ccc(OCC(F)(F)c2ccc(OC(F)F)cc2)cn1 (stereo not drawn) [Compound 120, 1-(5-(2-(4-(difluoromethoxy)phenyl)-2,2-difluoroethoxy)pyridin-2-yl)-2-(2,4-difluorophenyl)-1,1-difluoro-3-(1H-tetrazol-1-yl)propan-2-ol]",MIC,[1],≤ 0.5 µg/mL
same,pest or weed control at 50 ppm,[2],80 to 100%
